Data taken from patent US7632918B2, “Semi-synthetic glycopeptides with antibiotic activity” (Novartis Vaccines and Diagnostics, Inc., priority 2005, dated 2009).
Converted amounts (≈) assume the structure as drawn.

How the values were obtained:
Test in all cases: MIC, broth microdilution in Meuller-Hinton broth (NCCLS)
602 S. haemolyticus = assay type: cell-based, Staphylococus haemolyticus; details: clinical isolate
How it was run: (§1)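 Clinical strains, sensitive or resistant to natural glycopeptides, served as test organisms; the end point was the minimal inhibitory concentration, given in μg/ml.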

3797 S. aureus (GISA) = assay type: cell-based, Staphylococus aureus; details: glycopeptides-intermediate clinical isolate
How it was run: as §1

3798 S. aureus (GISA) = assay type: cell-based, Staphylococus aureus; details: glycopeptides-intermediate clinical isolate
How it was run: as §1

533 S. epidermidis = assay type: cell-based, Staphylococus epidermidis; details: clinical isolate
How it was run: as §1

559 E. faecalis (GSE) = assay type: cell-based, Enterococcus faecalis; details: glycopeptide-sensitive clinical isolate
How it was run: as §1

560 E. faecalis (GRE) = assay type: cell-based, Enterococcus faecalis; details: glycopeptide-resistant clinical isolate
How it was run: as §1

568 E. faecium (GSE) = assay type: cell-based; details: glycopeptide-sensitive clinical isolate
How it was run: as §1

569 E. faecium (GRE) = assay type: cell-based; details: glycopeptide-resistant clinical isolate
How it was run: as §1

Compound: CCCCCCCCOc1ccc(CNCC(=O)NC2(C)CC(OC3C(Oc4c5cc6cc4Oc4ccc(cc4Cl)C(O)C4NC(=O)C(NC(=O)C6NC(=O)C(CC(N)=O)NC(=O)C(NC(=O)C(CC(C)C)NC)C(O)c6ccc(c(Cl)c6)O5)c5ccc(O)c(c5)-c5c(O)cc(O)cc5C(C(=O)NCc5ccc(F)cc5)NC4=O)OC(CO)C(O)C3O)OC(C)C2O)cc1 (centres unmarked) [Compound 277]
- MIC 602 S. haemolyticus (602 S. haemolyticus): 8 µg/mL (≈ 4.37 µM)
- MIC 3797 S. aureus (GISA) (3797 S. aureus (GISA)): 8 µg/mL (≈ 4.37 µM)
- MIC 3798 S. aureus (GISA) (3798 S. aureus (GISA)): 4 µg/mL (≈ 2.18 µM)
- MIC 533 S. epidermidis (533 S. epidermidis): 4 µg/mL (≈ 2.18 µM)
- MIC 559 E. faecalis (GSE) (559 E. faecalis (GSE)): 4 µg/mL (≈ 2.18 µM)
- MIC 560 E. faecalis (GRE) (560 E. faecalis (GRE)): 8 µg/mL (≈ 4.37 µM)
- MIC 568 E. faecium (GSE) (568 E. faecium (GSE)): 4 µg/mL (≈ 2.18 µM)
- MIC 569 E. faecium (GRE) (569 E. faecium (GRE)): 8 µg/mL (≈ 4.37 µM)
